Experimental data from a melting point compilation (Tetko et al.; mined from patent text by program, amines drawn as free bases though some values may be those of a salt).

| Compound | melting point [°C] |
| --- | --- |
| O=C1CCC(c2ccc(-n3ccc(=O)cc3)cc2)=NN1 | 270 to 272 |
| N#CCC=Cc1ccc(Cc2ccc(C=CCC#N)cc2)cc1 | 128 to 130 |
| N#Cc1[nH]c(=O)n(-c2ccc(Cl)cc2)c1C#N | 242 to 245 |
| NC(=O)c1n[nH]c(S(=O)(=O)c2ccc(Br)cc2)n1 | 130 to 136 |
| COC(=O)C1=C(NC(=O)Nc2cc(C(=O)OC(C)C)c(Cl)cc2F)CCS1 | 161 to 163 |
| CC[C@H](C)CNC(=O)[C@@H](C[C@H](O)[C@H](CC1CCCCC1)NC(=O)OC(C)(C)C)C(C)(C)O | 64 to 67 |
| CC1COc2c(N3Cc4ccccc4C3)c(F)cc3c(=O)c(C(=O)O)cn1c23 (configuration not stated) | > 300 |
| N#CC(C(N)=S)c1ccc(Cl)c(Cl)c1 (configuration not stated) | 143 |
| CN(C(=O)/C=C/CSc1nc(N)cc(Cl)n1)c1ccccc1 | 152 to 154 |
| CC(C)(C)CC(C)(C)c1cc(N=Nc2cc([N+](=O)[O-])ccc2Cl)c(O)c(C(C)(C)c2ccccc2)c1 | 153 to 156 |
| Cc1cccc(-c2[nH]c(C(C)C)nc2-c2ccc(F)c(-c3ccc(C)[nH]3)c2)n1 | 118 to 121 |
| O=C(O)c1cc(-c2ccc3occc3c2)nn(Cc2ccc(F)cc2)c1=O | 207 to 210 |
| CSCC(=O)N=C(SC)N(C)N=Cc1ccccc1 | 68 to 70 |
| COc1ccc(C=O)c(OCC#N)c1 | 96 to 101 |
| COC(=O)COc1cccc2c(O)cccc12 | 177 to 179 |
| O=C(O)CCCCCCCn1cnc(-c2ccccc2Cl)c1-c1ccccc1Cl | 145 to 146 |
| Cc1ccc(CN2CCN([C@@H](CNS(=O)(=O)c3ccc(OCc4cc(C)nc5ccccc45)cc3)C(=O)NO)CC2)cc1 | 170 |
| CCCCCCCCCCCCc1c[nH]c(C=O)c1 | 64 to 65 |
| O=C(NCc1ccccc1)c1ccnc(-n2cnn(CC3CC3)c2=O)c1 | 137 to 139 |
| OC1(c2ccccc2)CCN(CCC2COc3ccccc3O2)CC1 (configuration not stated) | 142 |
| COC(=O)CCc1cc2cc(Cl)ccc2n1S(=O)(=O)c1ccc2c(c1)OCO2 | 122 to 129 |
| CC(C)(C)OC(=O)Nc1ccc(Cl)nc1 | 126 to 127 |
| O=C(O)c1ccc(CN2Cc3ccccc3Cc3ccccc32)cc1 | 198 |
| CCn1c(Cc2ccc(C)cc2)nnc1[C@@H](C)NS(=O)(=O)c1ccc(Cl)c(Cl)c1 | 189 to 191 |
| Cn1c(=O)c(C#N)c(N2CCN(C(=O)c3cccs3)CC2)c2cc(F)ccc21 | 286 |
| CS(=O)(=O)N(Cc1cccnc1)c1ccc(O)cc1 | 208 to 210 |

| Compound | melting point [°C] |
| --- | --- |
| CSc1ccc(C(C)C)c(NC(=O)CN2CCN(CCCSc3nc4ccccc4o3)CC2)c1C(C)C | 126 to 127 |
| CCC1(CCC(=O)OC)CCCN2CCc3c([nH]c4ccccc34)C21 (configuration not stated) | 110 |
| CCc1nn(CCN)c(CO)c1Oc1cc(Cl)cc(Cl)c1 | 105 to 107 |
| C=CCNC(=O)C(C)=Cc1cc([N+](=O)[O-])ccc1Cl | 111 to 112 |
| CC(C)C1(C)N=C(c2ncc(C3OCCO3)cc2C(=O)O)NC1=O (configuration not stated) | 156 |
| CCOC(=O)c1ccc(-c2ccc3c(c2)C(Nc2ccc(Cl)cc2)CC(C)N3C(C)=O)cc1 (configuration not stated) | 114 |
| FC(F)(F)c1nc2nc(Cl)c(Cl)cc2[nH]1 | 222 to 224 |
| CC(=Cc1ccccc1)c1ccc2c(c1)SCCC2(C)C | 67 to 69 |
| CCc1cccc(C)c1CNc1cc(C(=O)OC)cn2nc(C)nc12 | 140 |
| O=C(NC(=O)c1ccc(F)cc1Cl)Nc1ccc(C(F)(F)F)c(F)c1 | 181 |
| O=C(O)CCc1cc2ccccc2c(-c2ccccc2)n1 | 146 |
| CCCCC1=N/C(=C\c2c[nH]c3ncccc23)C(=O)N1C | 220 to 222 |
| COc1ccc(C2(C3CCCC3=O)CCC(C(=O)O)CC2)c2c1OCCO2 (configuration not stated) | 200 to 201 |
| CCOC(=O)c1ccc(N)c(C)c1 | 76 to 77 |
| CN(C)CN(C(=O)c1ccc(Cl)cc1Cl)c1ccc(C(=O)N2Cc3cccn3Cc3ccccc32)cc1 | 126 to 129 |
| CCOC(=O)Cc1cccc(OCc2ccc3oc([N+](=O)[O-])c(-c4ccccc4)c3c2)c1 | 67 to 68 |
| CCCCN(Cc1ccc(-c2ccccc2-c2nnnn2C(c2ccccc2)(c2ccccc2)c2ccccc2)cc1)c1ncncc1C(=O)OCC | 142 to 144 |
| CCOC(=O)c1cc2c3ccccc3n(Cc3ccccc3)c2cn1 | 126 to 127 |
| N#CC(Nc1ccc2ccccc2c1)c1c(Cl)cccc1Cl (configuration not stated) | 94.8 |
| FC(F)(F)c1cccc(C(NC2=NCCO2)C(F)(F)F)c1 (configuration not stated) | 129 to 132 |
| COc1cncnc1N1CCN(CCCc2c[nH]c3ccc(CNC(C)=O)cc23)CC1 | 169 to 174 |
| CCOC(=O)c1cnc2c(-c3ccc(Cc4cccc(OC)c4)cc3)cnn2c1O | 236 to 240 |
| Nc1ncc(-c2ccc(=O)[nH]n2)c(-c2ccco2)n1 | 262 to 268 |
| COC(=O)C#CCOC(N)=O | 113 to 114 |
| Oc1c(Cl)cc(Cn2c(=S)sc3ccccc32)cc1Cl | 169 to 172 |
| CCCCCCCCCCCCCCCCCCOC(C)c1ccc(-c2ccc(C(=O)O)cc2)cc1 (single isomer, unassigned; (+)) | 145 to 146 |

| Compound | melting point [°C] |
| --- | --- |
| COCCOc1cc(Cc2cnc(N)nc2N)cc2cccnc12 | 253 to 255 |
| COc1c(C(=O)O)nc(N2CCCCS2(=O)=O)n(C)c1=O | 180 to 181 |
| CN1C(=O)C2C3Oc4ccccc4OC3=C3C(Oc4cccnc4N3C(=O)Oc3ccccc3)C2C1=O (configuration not stated) | 245 |
| CCC(=O)N(C)Cc1cccc2c1C(=O)N(C1CCC(=O)NC1=O)C2=O (configuration not stated) | 206 to 208 |
| COCCc1nc2c(N)nc3ccccc3c2n1CCCCCCCCNS(=O)(=O)c1ccccc1 | 146 to 149 |
| OCc1cc(C=CCN2Cc3ccccc3C2)ccc1O | 177 to 178 |
| CC(=O)SCC(C(=O)NCCc1nnn[nH]1)C(F)(F)F (configuration not stated) | 157 to 160 |
| COc1ccc(OC)c(Nc2ncc(C(=O)O)c(=O)[nH]2)c1 | 260 to 262 |
| N#Cc1ccc(N2C[C@@H]3[C@H](O)CCN3C2=O)c2ccccc12 | 226 to 228 |
| O=C(O)c1ccc(C(=C2CC3CCC(C2)N3CCc2ccccc2)c2ccccc2)cc1 | 285 to 290 |
| COc1ccc2c(c1)c1c(n2C(=O)c2ccccc2)CCCC1C(=O)O (configuration not stated) | 157 to 159 |
| COc1ccc(CC#N)c2c1OCCO2 | 121 to 125 |
| C1=C(c2cc3ccccc3s2)CCC2(C1)CCNCC2 | 107 to 110 |
| O=C(C=CCl)CCCN1C(=O)c2ccccc2C1=O | 92 |
| COc1ccc(CCc2ccc3ccc(C(=O)NCC(O)c4ccccc4)c(O)c3n2)cc1 (configuration not stated) | 69 to 72 |
| CCN1CCN(C(=O)NC(C(=O)NC2C(=O)N(OCc3ccccc3)C2C)c2ccccc2)C(=O)C1=O (configuration not stated) | 100 to 105 |
| CS(=O)(=O)c1ccc(-c2cnn(CC(F)(F)F)c(=O)c2Cl)cc1 | 221 to 222 |
| Cc1ccccc1N1CCN(C(=O)c2ccc3n2Cc2ccccc2N(C(=O)c2ccc(C4CCCCC4)cc2)C3)CC1 | 141 to 143 |
| O=C1c2ccccc2C(=O)N1CCOc1cccc2c1SCCC2 | 166 |
| O=c1[nH]c2ncc(-c3ccc4[nH]ccc4c3)nc2n1CC1CCCCC1 | 343 to 346 |
| OCCCCc1n[nH]c2ccc(C(F)(F)F)cc12 | 74 to 76 |
| CC(C)(C)OC(=O)N[C@@H](Cc1ccc(Cc2ccccc2)cc1)C(=O)O | 103 to 107 |
| Cc1cnc2n(c1=O)C(C)CCC2=NNc1ccccc1 (configuration not stated) | 165 to 166 |
| O=C1c2ccccc2C(=O)N1CCCCCCSc1ccc2ccccc2c1 | 109 to 110 |
| Brc1nsc2nc3ccccc3n12 | 189 to 190 |
| C(=C\c1nc(CSc2ccc(CCCn3ccnc3)cc2)co1)/c1ccccc1 | 74 to 75 |

| Compound | melting point [°C] |
| --- | --- |
| CCCC(=O)Cc1cc(OC)ccc1NC(=O)OC(C)(C)C | 77 to 78 |
| CS(=O)(=O)c1ccc(-c2c(-c3ccccc3)[nH]c3ccccc23)cc1 | 239 to 241 |
| COC(=O)c1cccc2nc(N3CCCCC3)n(Cc3ccc(-c4ccccc4-c4nnn[nH]4)cc3)c12 | 146 to 150 |
| Nc1ccccc1Sc1ccccc1-c1nnn[nH]1 | 153 to 156 |
| COc1cccc(N(CCN2CCC(C(=O)c3ccc(F)cc3)CC2)C(=O)c2ccc(NC(N)=O)cc2)c1 | 123 to 128 |
| CCOCc1nc2c(N)nc3ccccc3c2n1CC1(O)CCN(C(=O)Nc2ccccc2)CC1 | 184 to 186 |
| O=C(Cn1ccnc1)c1ccccc1 | 121 to 122 |
| O=C1C2CCN(CC2)C1CC(c1ccccc1)c1ccccc1 (configuration not stated) | 107 |
| COc1ccc(C2CCN(C(N)=O)CC2)cc1CC1CCCC1 | 168 to 169 |
| CC(C)n1nc(-c2c(NCCN(C)C)nc(N)nc2-c2ccccc2)ccc1=O | 164 to 166 |
| CN1c2ccccc2C(C)(C)C12CNc1c(cc(N3CCCCC3)c3oc4ccccc4c13)O2 (configuration not stated) | 214 to 216 |
| CCCCCCCCn1nnc(C(C(=O)Nc2c(OC)cc(OC)cc2OC)c2ccccc2)n1 (configuration not stated) | 113 to 116 |
| C[C@H](O)Cn1ccc2cc(F)c(Cl)cc21 | 99 to 101 |
| CSc1nc(Cl)cc2nncn12 | 164 to 165 |
| CC(=O)Sc1cccs1 | 112 to 114 |
| CCNC(=O)Nc1cn(-c2cccnc2)nc1C | 197 to 200 |
| Oc1cccc(-c2ccc(OC[C@H](O)CCc3cccnc3)cc2)c1 | 169 |
| CCOC(=O)c1nnc2ccc(-c3ccco3)cc2c1O | 198 to 200 |
| O=C1CC(c2ccc(O)cc2)Oc2cc(O)c(C3OC(CO)C(O)C(O)C3O)c(O)c21 (configuration not stated) | 195 to 196 |
| Cc1c(Cl)cc2nc(Cl)c(Cl)nc2c1[N+](=O)[O-] | 121 to 122 |
| Cn1c(OC(F)F)n[nH]c1=O | 111 |
| CSC1=NC=CC(NN)(SC)N1 (configuration not stated) | 120 to 125 |
| Cc1ccc(S(=O)(=O)N(c2ccc(Cl)cc2[N+](=O)[O-])C(C)C)cc1 | 112 to 114 |
| ClC(Cl)(Cl)c1nnc(C=Cc2ccc(C=Cc3ccccc3)cc2)o1 | 176 to 178 |
